As usually defined, the IC50 is the point on the concentration scale where inhibition reaches its midpoint.

Consider 11 compounds from patent US20260297081A1, “COMPOUNDS AND METHODS OF TREATING CANCERS” (Cullgen Inc., priority 2023, published 2026).

The test system of assay [1] is Calu-1 cells. The assay can be described thus: Anti-proliferation (viability) of NSCLC Calu-1 cells, 3 days (Table 7, FIG. 2B). Conditions: Homo sapiens, 72 h; Calu-1 cells, 3 days, 10-point serial dilution; read-out: GI IC50 in Calu-1. It counts as cell-based. The method in brief: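 Cells treated with heterobifunctional compounds in 10-point serial dilution, then viability measured; Calu-1 NSCLC cells exposed for 3 days, ER+ T47D breast cancer cells for 6 days.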

The subject of assay [2] is MCF7 cells. In words: Anti-proliferation (viability) of MCF7 cells (Table 7, FIG. 2B). The assay is classed as cell-based. To be noted: Homo sapiens, MCF7, MCF7 cells, 3-6 days, 10-point serial dilution; read-out: GI IC50 in MCF-7.

Regarding `CC(=O)c1c(C)c2cnc(Nc3ccc(N4CCN(C5CCN(C(=O)C6(F)CCC(Nc7nc(NC(C)C)ccc7C(=O)Nc7ccc(N(C)C)nn7)CC6)C5)CC4)cn3)nc2n(C2CCCC2)c1=O` (stereo not shown) [CPD-572, 2-((4-(3-(4-(6-((6-acetyl-8-cyclopentyl-5-methyl-7-oxo-7,8-dihydropyrido[2,3-d]pyrimidin-2-yl)amino)pyridin-3-yl)piperazin-1-yl)pyrrolidine-1-carbonyl)-4-fluorocyclohexyl)amino)-N-(6-(dimethylamino)pyridazin-3-yl)-6-(isopropylamino)nicotinamide], the IC50 is no more than 10 nM in assay [1] and 50 to 100 nM in assay [2].
`CC(=O)c1c(C)c2cnc(Nc3ccc(N4CCN(C(C)CC(=O)NC56CC(Nc7nc(NC(C)C)ccc7C(=O)Nc7ccc(N(C)C)nn7)(C5)C6)CC4)cn3)nc2n(C2CCCC2)c1=O` (stereo not shown) [CPD-504, 2-((3-(3-(4-(6-((6-acetyl-8-cyclopentyl-5-methyl-7-oxo-7,8-dihydropyrido[2,3-d]pyrimidin-2-yl)amino)pyridin-3-yl)piperazin-1-yl)butanamido)bicyclo[1.1.1]pentan-1-yl)amino)-N-(6-(dimethylamino)pyridazin-3-yl)-6-(isopropylamino)nicotinamide]: the IC50 in assay [1] was no more than 10 nM; in assay [2], less than 50 nM.
Consider `CC(=O)c1c(C)c2cnc(Nc3ccc(CN4CCN(CC(=O)N5CCC6(CCC(Nc7nc(NC(C)C)ccc7C(=O)Nc7cc(C)n(C)n7)C6)C5)CC4)cn3)nc2n(C2CCCC2)c1=O` (stereo not shown) [CPD-547, 2-((2-(2-(4-((6-((6-acetyl-8-cyclopentyl-5-methyl-7-oxo-7,8-dihydropyrido[2,3-d]pyrimidin-2-yl)amino)pyridin-3-yl)methyl)piperazin-1-yl)acetyl)-2-azaspiro[4.4]nonan-7-yl)amino)-N-(1,5-dimethyl-1H-pyrazol-3-yl)-6-(isopropylamino)nicotinamide], for which the IC50 is no more than 10 nM in assay [1] and less than 50 nM in assay [2].
Consider `CCN1CCc2cc(-c3nc(Nc4ccc(CN5CCN(CC(=O)NC6CC7(C6)CC(Nc6nc(NC(C)C)ccc6C(=O)Nc6ccc(N(C)C)nn6)C7)CC5)cn4)ncc3F)ccc2C1=O` (stereo not shown) [CPD-554, N-(6-(dimethylamino)pyridazin-3-yl)-2-((6-(2-(4-((6-((4-(2-ethyl-1-oxo-1,2,3,4-tetrahydroisoquinolin-6-yl)-5-fluoropyrimidin-2-yl)amino)pyridin-3-yl)methyl)piperazin-1-yl)acetamido)spiro[3.3]heptan-2-yl)amino)-6-(isopropylamino)nicotinamide], for which the IC50 in assay [1] is no less than 50 nM; in assay [2], greater than 100 nM.
For the compound `CC(=O)c1c(C)c2cnc(Nc3ccc(CN4CCN(CC(=O)N5CCC(Nc6nc(NC(C)C)ccc6C(=O)Nc6cn7c(n6)CCC7)CC5)CC4)cn3)nc2n(C2CCCC2)c1=O` [CPD-564, 2-((1-(2-(4-((6-((6-acetyl-8-cyclopentyl-5-methyl-7-oxo-7,8-dihydropyrido[2,3-d]pyrimidin-2-yl)amino)pyridin-3-yl)methyl)piperazin-1-yl)acetyl)piperidin-4-yl)amino)-N-(6,7-dihydro-5H-pyrrolo[1,2-a]imidazol-2-yl)-6-(isopropylamino)nicotinamide], the IC50 in assay [1] was 10 to 50 nM; in assay [2], greater than 100 nM.
Regarding `CC(=O)c1c(C)c2cnc(Nc3ccc(N4CC5(CN(CC(=O)NC6CC7(C6)CC(Nc6nc(NC(C)C)ccc6C(=O)Nc6ccc(N(C)C)nn6)C7)C5)C4)cn3)nc2n(C2CCCC2)c1=O` (stereo not shown) [CPD-467, 2-((6-(2-(6-(6-((6-acetyl-8-cyclopentyl-5-methyl-7-oxo-7,8-dihydropyrido[2,3-d]pyrimidin-2-yl)amino)pyridin-3-yl)-2,6-diazaspiro[3.3]heptan-2-yl)acetamido)spiro[3.3]heptan-2-yl)amino)-N-(6-(dimethylamino)pyridazin-3-yl)-6-(isopropylamino)nicotinamide], the IC50 in assay [1] was no more than 10 nM; in assay [2], greater than 100 nM.
For the compound `CC(=O)c1c(C)c2cnc(Nc3ccc(N4CCN(C5CCN(C(=O)C67CC(Nc8nc(NC(C)C)ccc8C(=O)Nc8ccc(N(C)C)nn8)(C6)C7)C5)CC4)cn3)nc2n(C2CCCC2)c1=O` (stereo not shown) [CPD-534, 2-((3-(3-(4-(6-((6-acetyl-8-cyclopentyl-5-methyl-7-oxo-7,8-dihydropyrido[2,3-d]pyrimidin-2-yl)amino)pyridin-3-yl)piperazin-1-yl)pyrrolidine-1-carbonyl)bicyclo[1.1.1]pentan-1-yl)amino)-N-(6-(dimethylamino)pyridazin-3-yl)-6-(isopropylamino)nicotinamide], the results for the IC50 in assay [1] and in assay [2] were no more than 10 nM and less than 50 nM, respectively.
For `[2H]C([2H])([2H])Nc1ccc(C(=O)Nc2ccc(N(C)C)nn2)c(NC2CC3(C2)CN(C(=O)CCN2CCN(c4ccc(Nc5ncc6c(C)c(C(C)=O)c(=O)n(C7CCCC7)c6n5)nc4)CC2(C)C)C3)n1` [CPD-458, 2-((2-(3-(4-(6-((6-acetyl-8-cyclopentyl-5-methyl-7-oxo-7,8-dihydropyrido[2,3-d]pyrimidin-2-yl)amino)pyridin-3-yl)-2,2-dimethylpiperazin-1-yl)propanoyl)-2-azaspiro[3.3]heptan-6-yl)amino)-N-(6-(dimethylamino)pyridazin-3-yl)-6-((methyl-d3)amino)nicotinamide], the IC50 in assay [1] was no more than 10 nM; in assay [2], greater than 100 nM.
In the case of `CC(=O)c1cc2cnc(Nc3ccc(N4CCN(C5CCN(C(=O)[C@H]6CC[C@H](Nc7nc(NC(C)C)ccc7C(=O)Nc7ccc(N(C)C)nn7)CC6)C5)CC4)cn3)nc2n(C2CCCC2)c1=O` (stereo partly drawn) [CPD-560, 2-((trans-4-(3-(4-(6-((6-acetyl-8-cyclopentyl-7-oxo-7,8-dihydropyrido[2,3-d]pyrimidin-2-yl)amino)pyridin-3-yl)piperazin-1-yl)pyrrolidine-1-carbonyl)cyclohexyl)amino)-N-(6-(dimethylamino)pyridazin-3-yl)-6-(isopropylamino)nicotinamide], the IC50 was no more than 10 nM in assay [1] and greater than 100 nM in assay [2].
As to `CC(=O)c1c(C)c2cnc(Nc3ccc(N4CCN(CCC(=O)N5CC6(CC(Nc7nc(NC(C)C)ccc7C(=O)Nc7ccc(N(C)C)nn7)C6)C5)C(C)(C)C4)cn3)nc2n(C2CCCC2)c1=O` [CPD-459, 2-((2-(3-(4-(6-((6-acetyl-8-cyclopentyl-5-methyl-7-oxo-7,8-dihydropyrido[2,3-d]pyrimidin-2-yl)amino)pyridin-3-yl)-2,2-dimethylpiperazin-1-yl)propanoyl)-2-azaspiro[3.3]heptan-6-yl)amino)-N-(6-(dimethylamino)pyridazin-3-yl)-6-(isopropylamino)nicotinamide], the 50% inhibitory concentration (IC50) is no more than 10 nM in assay [1] and greater than 100 nM in assay [2].
For `[2H]C([2H])([2H])Nc1ccc(C(=O)Nc2cn(C)c(C3CC3)n2)c(NC2CCC(NC(=O)CN3CCN(c4ccc(Nc5ncc6c(C)c(C(C)=O)c(=O)n(C7CCCC7)c6n5)nc4)CC3)C2)n1` (stereo not shown) [CPD-285, 2-((3-(2-(4-(6-((6-acetyl-8-cyclopentyl-5-methyl-7-oxo-7,8-dihydropyrido[2,3-d]pyrimidin-2-yl)amino)pyridin-3-yl)piperazin-1-yl)acetamido)cyclopentyl)amino)-N-(2-cyclopropyl-1-methyl-1H-imidazol-4-yl)-6-((methyl-d3)amino)nicotinamide], in that order: 10 to 50 nM and greater than 100 nM.
